Data published in PubChem BioAssay AID212 (DTP/NCI, 2004).
Several values for one entry are separate records, joined by “and”; a condition that tells them apart may be missing. Identical values can stand only once. Results filed as inconclusive are left out.

System: BDF1 mice, colon carcinoma 38 sc, T/C %
Assay: NCI In Vivo Anticancer Drug Screen. Data for tumor model Colon Carcinoma 38 (subcutaneous) in B6D2F1 (BDF1) mice
Details: endpoint: median tumor weight (est.), higher = larger tumour
Protocol: The antitumor activity of compounds was measured in mice bearing transplantable tumors. Survival or tumor size were measured and the results are expressed as the measurement made in the treated group (T) divided by the measurement made in the vehicle treated control group (C). The tumor model used in this assay is Colon Carcinoma 38 (subcutaneous) in B6D2F1 (BDF1) mice

[1] = dose: 25.0 mg/kg/injection, schedule: Q07DX002 (ip), vehicle: saline
[2] = dose: 50.0 mg/kg/injection, schedule: Q07DX002 (ip), vehicle: saline
[3] = dose: 100.0 mg/kg/injection, schedule: Q07DX002 (ip), vehicle: saline
[4] = dose: 200.0 mg/kg/injection, schedule: Q07DX002 (ip), vehicle: saline
[5] = dose: 400.0 mg/kg/injection, schedule: Q07DX002 (ip), vehicle: saline
[6] = dose: 50.0 mg/kg/injection, schedule: Q07DX003 (ip), vehicle: saline
[7] = dose: 400.0 mg/kg/injection, schedule: Q07DX003 (ip), vehicle: saline
[8] = dose: 50.0 mg/kg/injection, schedule: Q07DX002 (ip), vehicle: saline with Tween-80
[9] = dose: 100.0 mg/kg/injection, schedule: Q07DX002 (ip), vehicle: saline with Tween-80
[10] = dose: 200.0 mg/kg/injection, schedule: Q07DX002 (ip), vehicle: saline with Tween-80
[11] = dose: 400.0 mg/kg/injection, schedule: Q07DX002 (ip), vehicle: saline with Tween-80
[12] = dose: 50.0 mg/kg/injection, schedule: Q07DX002 (ip), vehicle: suspension in saline
[13] = dose: 100.0 mg/kg/injection, schedule: Q07DX002 (ip), vehicle: suspension in saline
[14] = dose: 25.0 mg/kg/injection, schedule: Q07DX002 (ip), vehicle: suspension in saline
[15] = dose: 400.0 mg/kg/injection, schedule: Q07DX002 (ip), vehicle: suspension in saline
[16] = dose: 800.0 mg/kg/injection, schedule: Q07DX002 (ip), vehicle: saline
[17] = dose: 0.5 mg/kg/injection, schedule: Q07DX003 (ip), vehicle: saline
[18] = dose: 1.0 mg/kg/injection, schedule: Q07DX003 (ip), vehicle: saline
[19] = dose: 2.0 mg/kg/injection, schedule: Q07DX003 (ip), vehicle: saline
[20] = dose: 12.5 mg/kg/injection, schedule: Q07DX002 (ip), vehicle: saline with Tween-80
[21] = dose: 25.0 mg/kg/injection, schedule: Q07DX002 (ip), vehicle: saline with Tween-80

CC[C@](C)(O)C(=O)O[C@H]1C(=O)O[C@@H]2C[C@H]3C(C)=CC(=O)[C@@H](O)[C@]3(C)[C@H]3[C@@]4(O)OC[C@]32[C@@H]1[C@@H](C)[C@H]4O
T/C (dose: 0.13 mg/kg/injection, schedule: Q07DX002 (ip), vehicle: saline with Tween-80): 91 % of control | T/C (dose: 0.25 mg/kg/injection, schedule: Q07DX002 (ip), vehicle: saline with Tween-80): 90 % of control | T/C (dose: 0.5 mg/kg/injection, schedule: Q07DX002 (ip), vehicle: saline with Tween-80): 60 % of control | T/C (dose: 1.0 mg/kg/injection, schedule: Q07DX002 (ip), vehicle: saline with Tween-80): 62 % of control | T/C (dose: 2.0 mg/kg/injection, schedule: Q07DX002 (ip), vehicle: saline with Tween-80): 47 % of control

O=C1C=CC(=O)O1 (tested in a mixture with another compound)
T/C (dose: 12.5 mg/kg/injection, schedule: Q07DX002 (ip), vehicle: saline): 155 % of control | T/C [1]: 106 % of control | T/C [2]: 90 % of control | T/C [3]: 100 % of control | T/C [4]: 86 % of control | T/C [5]: 86 % of control

Cc1cn(C2CC(O)C(CO)O2)c(=O)[nH]c1=O (stereo not drawn)
T/C (dose: 25.0 mg/kg/injection, schedule: Q07DX003 (ip), vehicle: saline): 54 % of control and 79 % of control | T/C (dose: 50.0 mg/kg/injection, schedule: Q03HX024 (ip), vehicle: saline): 95 % of control | T/C [6]: 76 % of control | T/C (dose: 100.0 mg/kg/injection, schedule: Q03HX024 (ip), vehicle: saline): 98 % of control | T/C (dose: 200.0 mg/kg/injection, schedule: Q03HX024 (ip), vehicle: saline): 66 % of control | T/C (dose: 200.0 mg/kg/injection, schedule: Q07DX003 (ip), vehicle: saline): 90 % of control | T/C (dose: 400.0 mg/kg/injection, schedule: Q03HX024 (ip), vehicle: saline): 122 % of control | T/C [7]: 89 % of control and 101 % of control

CC(=S)NC(O)C(=O)c1ccccc1 (stereo not drawn)
T/C [8]: 71 % of control and 82 % of control | T/C [9]: 77 % of control and 99 % of control | T/C [10]: 98 % of control and 103 % of control | T/C [11]: 115 % of control

COc1cc2cc3c4cc(OC)c(OC)cc4cc[n+]3c(C)c2cc1OC (tested in a mixture with another compound)
T/C [6]: 164 % of control | T/C (dose: 100.0 mg/kg/injection, schedule: Q07DX003 (ip), vehicle: saline): 77 % of control and 96 % of control | T/C [7]: 53 % of control

CC(=O)OCC1(C)NC(=O)c2ccccc2O1 (stereo not drawn)
T/C (dose: 56.2 mg/kg/injection, schedule: Q07DX002 (ip), vehicle: saline with Tween-80): 54 % of control | T/C [9]: 98 % of control | T/C (dose: 112.5 mg/kg/injection, schedule: Q07DX002 (ip), vehicle: saline with Tween-80): 62 % of control | T/C [10]: 109 % of control | T/C (dose: 225.0 mg/kg/injection, schedule: Q07DX002 (ip), vehicle: saline with Tween-80): 69 % of control | T/C [11]: 153 % of control | T/C (dose: 450.0 mg/kg/injection, schedule: Q07DX002 (ip), vehicle: saline with Tween-80): 48 % of control | T/C (dose: 900.0 mg/kg/injection, schedule: Q07DX002 (ip), vehicle: saline with Tween-80): 48 % of control

CCN(CC)CCNc1ccc(C)c2sc3ccccc3c(=O)c12
T/C [1]: 47 % of control | T/C [2]: 78 % of control | T/C [12]: 45 % of control | T/C [3]: 105 % of control | T/C [13]: 24 % of control | T/C [4]: 16 % of control

Cn1cnc([N+](=O)[O-])c1Sc1ncn[nH]1
T/C [1]: 78 % of control | T/C [14]: 112 % of control | T/C [2]: 73 % of control | T/C [12]: 118 % of control | T/C [3]: 79 % of control | T/C [13]: 85 % of control | T/C [4]: 52 % of control | T/C [5]: 65 % of control | T/C [15]: 107 % of control | T/C [16]: 84 % of control

CCCC(=O)Nc1ncnc2c1ncn2C1OC2COP(=O)(O)OC2C1OC(=O)CCC (stereo not drawn)
T/C [1]: 84 % of control and 103 % of control | T/C [3]: 101 % of control and 106 % of control | T/C [16]: 75 % of control and 96 % of control

COC(=O)C[C@](O)(CCCC(C)(C)O)C(=O)O[C@@H]1C(OC)=C[C@]23CCCN2CCc2cc4c(cc2[C@H]13)OCO4
T/C (dose: 0.25 mg/kg/injection, schedule: Q07DX003 (ip), vehicle: saline): 93 % of control | T/C [17]: 95 % of control | T/C [18]: 64 % of control | T/C [19]: 53 % of control

Nc1c(C(=O)O)[nH]c(=O)[nH]c1=O
T/C [20]: 104 % of control | T/C [21]: 100 % of control | T/C [8]: 80 % of control | T/C [10]: 123 % of control

CC1(CO)C(O)CCC2(C)C1CCC1CC3CC12CCC3(O)CO (stereo not drawn)
T/C [20]: 120 % of control | T/C [21]: 103 % of control | T/C [8]: 100 % of control | T/C [9]: 124 % of control | T/C [10]: 77 % of control | T/C [11]: 89 % of control

CC(C)[C@](O)(C(=O)OCC1=CCN2CC[C@@H](O)[C@@H]12)[C@H](C)O
T/C (dose: 12.5 mg/kg/injection, schedule: Q07DX002 (ip), vehicle: suspension in saline): 123 % of control | T/C [14]: 76 % of control | T/C [2]: 85 % of control | T/C [12]: 74 % of control | T/C (dose: 50.0 mg/kg/injection, schedule: Q07DX002 (ip), vehicle: water): 73 % of control | T/C [13]: 56 % of control | T/C (dose: 100.0 mg/kg/injection, schedule: Q07DX002 (ip), vehicle: water): 184 % of control | T/C [4]: 105 % of control | T/C (dose: 200.0 mg/kg/injection, schedule: Q07DX002 (ip), vehicle: suspension in saline): 98 % of control | T/C [5]: 81 % of control | T/C [15]: 95 % of control | T/C (dose: 400.0 mg/kg/injection, schedule: Q07DX002 (ip), vehicle: water): 52 % of control

CC(=O)OC1C2OC3C=C(C)CCC3(CO)C(C)(C1OC(C)=O)C21CO1 (stereo not drawn)
T/C [17]: 50 % of control and 61 % of control | T/C [18]: 87 % of control and 101 % of control | T/C [19]: 111 % of control and 117 % of control | T/C (dose: 2.5 mg/kg/injection, schedule: Q01DX001 (ip), vehicle: saline): 266 % of control | T/C (dose: 4.0 mg/kg/injection, schedule: Q07DX003 (ip), vehicle: saline): 69 % of control and 75 % of control | T/C (dose: 5.0 mg/kg/injection, schedule: Q01DX001 (ip), vehicle: saline): 231 % of control | T/C (dose: 10.0 mg/kg/injection, schedule: Q01DX001 (ip), vehicle: saline): 173 % of control

[N-]=[N+]=CC(=O)CCC(=O)C=[N+]=[N-]
T/C (dose: 50.0 mg/kg/injection, schedule: Q07DX003 (ip), vehicle: Klucel (hydroxypropylcellulose) (HPC)): 39 % of control | T/C (dose: 100.0 mg/kg/injection, schedule: Q07DX003 (ip), vehicle: Klucel (hydroxypropylcellulose) (HPC)): 45 % of control | T/C (dose: 200.0 mg/kg/injection, schedule: Q07DX003 (ip), vehicle: Klucel (hydroxypropylcellulose) (HPC)): 50 % of control | T/C (dose: 400.0 mg/kg/injection, schedule: Q07DX003 (ip), vehicle: Klucel (hydroxypropylcellulose) (HPC)): 19 % of control

Nc1ccccc1N
T/C (dose: 12.5 mg/kg/injection, schedule: Q07DX002 (ip), vehicle: Klucel (hydroxypropylcellulose) (HPC)): 75 % of control and 91 % of control | T/C (dose: 25.0 mg/kg/injection, schedule: Q07DX002 (ip), vehicle: Klucel (hydroxypropylcellulose) (HPC)): 122 % of control and 102 % of control | T/C (dose: 50.0 mg/kg/injection, schedule: Q07DX002 (ip), vehicle: Klucel (hydroxypropylcellulose) (HPC)): 91 % of control | T/C (dose: 400.0 mg/kg/injection, schedule: Q07DX002 (ip), vehicle: Klucel (hydroxypropylcellulose) (HPC)): 54 % of control

CC[C@H]1CN2CCc3cc(OC)c(OC)cc3[C@@H]2C[C@@H]1C[C@H]1NCCc2cc(O)c(OC)cc21
T/C (dose: 3.0 mg/kg/injection, schedule: Q07DX002 (ip), vehicle: suspension in saline): 101 % of control | T/C (dose: 6.0 mg/kg/injection, schedule: Q07DX002 (ip), vehicle: suspension in saline): 110 % of control | T/C (dose: 12.0 mg/kg/injection, schedule: Q07DX002 (ip), vehicle: suspension in saline): 98 % of control | T/C (dose: 24.0 mg/kg/injection, schedule: Q07DX002 (ip), vehicle: suspension in saline): 89 % of control
